{"source": "ChEMBL document CHEMBL3639151", "about": "“Inhibitors of bruton's tyrosine kinase” (2014)", "molecular_target": "Tyrosine-protein kinase BTK (Homo sapiens, UniProt Q06187)", "sequence (Q06187 whole entry)": "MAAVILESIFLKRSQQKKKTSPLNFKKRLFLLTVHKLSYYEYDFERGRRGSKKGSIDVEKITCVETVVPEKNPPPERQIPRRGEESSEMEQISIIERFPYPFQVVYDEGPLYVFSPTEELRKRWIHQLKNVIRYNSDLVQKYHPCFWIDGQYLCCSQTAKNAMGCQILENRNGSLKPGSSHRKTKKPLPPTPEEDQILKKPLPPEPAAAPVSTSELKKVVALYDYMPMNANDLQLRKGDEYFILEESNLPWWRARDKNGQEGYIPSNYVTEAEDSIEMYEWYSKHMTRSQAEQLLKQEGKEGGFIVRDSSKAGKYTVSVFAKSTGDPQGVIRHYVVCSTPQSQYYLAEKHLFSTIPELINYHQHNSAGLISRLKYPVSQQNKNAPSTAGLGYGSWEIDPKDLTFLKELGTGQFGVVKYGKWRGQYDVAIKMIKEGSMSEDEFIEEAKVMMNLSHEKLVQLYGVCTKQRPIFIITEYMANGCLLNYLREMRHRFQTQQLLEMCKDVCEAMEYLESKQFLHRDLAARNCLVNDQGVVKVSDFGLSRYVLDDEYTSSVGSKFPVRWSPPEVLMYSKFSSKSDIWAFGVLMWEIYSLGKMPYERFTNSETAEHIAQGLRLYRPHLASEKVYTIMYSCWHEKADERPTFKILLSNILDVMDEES", "assay": "Inhibition Assay: Plates assayed are 96-well polypropylene (Greiner) and 96-well 1.2 μm hydrophilic PVDF filter plates (Millipore). Concentrations reported here are final assay concentrations: 10-100 μM compounds in DMSO (Burdick and Jackson), 5-10 nM Btk enzyme (His-tagged, full-length), 30 μM peptide substrate (Biotin-Aca-[…]-NH2), 100 μM ATP (Sigma), 8 mM imidazole (Sigma, pH 7.2), 8 mM glycerol-2-phosphate (Sigma), 200 μM EGTA (Roche Diagnostics), 1 mM MnCl2 (Sigma), 20 mM MgCl2 (Sigma), 0.1 mg/ml BSA (Sigma), 2 mM DTT (Sigma), 1 μCi 33P ATP (Amersham), 20% streptavidin sepharose beads (Amersham), 50 mM EDTA (Gibco), 2 M NaCl (Gibco), 2 M NaCl w/1% phosphoric acid (Gibco), microscint-20 (Perkin Elmer).", "data": [{"smiles": "CC(C)(C)c1cc(F)c2c(=O)n(-c3cccc(-n4cc(C(N)=O)c(Nc5ccc(S(C)(=O)=O)cc5)n4)c3CO)ncc2c1", "values": [{"measurement": "IC50", "value": 0.09, "unit": "nM"}]}]}
